Results as given in ChEMBL document CHEMBL5512658, “Development of benzimidazole-based compounds as novel capsid assembly modulators for the treatment of HBV infection” (Eur J Med Chem, 2024).
pEC50, pIC50: −log10 of the molar value. The source made the active and inactive calls. The calls are words filed in the database; no cut-off is given here.

Assays:
Hepatitis B virus [1] = experiment: Antiviral activity against HBV infected in human HepAD38 cells assessed as inhibition of viral replication by Southern blot analysis; format: functional, organism-based
[2] = Toxicity in BALB/c mouse at 100 mg/kg, po administered twice daily for 14 days; format: organism-based; conditions: in vivo, 336 h, time 14 day
Hepatitis B virus [3] = experiment: Antiviral activity against HBV infected in human HePAD38 cells assessed as reduction HBV capsid level at 5 uM media replaced for every 2 to 3 days incubated for 7 days by Western blot analysis; format: functional, organism-based; conditions: time 7.0 day
HepG2 = experiment: Cytotoxicity against human HepG2 cells measured after 3 days by resazurin staining based analysis; format: functional; conditions: HepG2, 72 h, time 3 day
Hepatitis B virus [4] = experiment: Antiviral activity against HBV infected in human HePAD38 cells assessed as inhibition of HBV capsid assembly by measuring secretion of particles containing HBV DNA at 5 uM incubated for 7 days by Southern blot analysis; format: functional, organism-based; conditions: time 7.0 day
Hepatitis B virus [5] = experiment: Antiviral activity against HBV infected in human HePAD38 cells assessed as reduction in intracellular core HBV DNA level media replaced for every 2 to 3 days incubated for 7 days by Western blot analysis; format: functional, organism-based
Hepatitis B virus [6] = experiment: Antiviral activity against HBV infected in BALB/c mouse hydrodynamic injection model hydrodynamically injected with replication-competent HBV DNA plasmid assessed as decrease in HBsAG level in mouse serum at 100 mg/kg, po administered twice daily for 7 days by ELISA method; format: functional, organism-based; conditions: time 7.0 day
[7] = test system: Hepatitis B virus core protein; experiment: Selectivity index, ratio of CC50 for human HepG2 cells to IC50 for Hepatitis B virus core protein expressed in HEK293T cells; format: toxicity, cell-based; conditions: read-out: Ratio CC50/IC50
Core antigen = Core antigen (Hepatitis B virus, UniProt Q03732); experiment: Inhibition of Hepatitis B virus core protein expressed in HBC cells derived from HEK293T cells assessed as reduction in HBcAg level incubated for 6 hrs by Nano-glo luciferase assay; format: cell-based; conditions: read-out: IC50
Hepatitis B virus [8] = experiment: Antiviral activity against HBV infected in human HePAD38 cells assessed as decrease in HBV DNA level at 2.5 to 20 uM by q-PCR analysis; format: functional, organism-based; conditions: dose 2.5-20 µM
Hepatitis B virus [9] = experiment: Antiviral activity against HBV infected in BALB/c mouse hydrodynamic injection model hydrodynamically injected with replication-competent HBV DNA plasmid assessed as reduction in HBV DNA copy numbers in plasma at 100 mg/kg, po administered twice daily for 14 days; format: functional, organism-based; conditions: time 14.0 day
Hepatitis B virus [10] = experiment: Antiviral activity against HBV infected in human HepAD38 cells assessed as inhibition of viral replication incubated for 6 days by qPCR analysis; format: functional, organism-based; conditions: HePAD38, 144 h

Chain of Core antigen (Q03732 whole entry): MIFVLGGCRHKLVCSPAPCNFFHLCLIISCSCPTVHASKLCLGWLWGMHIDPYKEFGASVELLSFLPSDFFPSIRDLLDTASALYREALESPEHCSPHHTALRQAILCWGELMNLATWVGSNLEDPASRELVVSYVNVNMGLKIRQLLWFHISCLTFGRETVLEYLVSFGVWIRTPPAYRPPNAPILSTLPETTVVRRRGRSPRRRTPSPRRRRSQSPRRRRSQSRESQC

CCOC(=O)C1=C(CN2CCOCC2)NC(c2nccs2)=N[C@H]1c1ccc(F)cc1Br
pEC50 (Hepatitis B virus [1]): 7.21

COc1ccc(Sc2nc3ccccc3n2CCO)cc1
Activity [2]: Non-Toxic
Activity (Hepatitis B virus [3]): Active
CC50 (HepG2): 84.3 µM
Activity (Hepatitis B virus [4]): Active
pEC50 (Hepatitis B virus [5]): 5.65
Activity (Hepatitis B virus [6]): Active
selectivity ratio [7]: 165
pIC50 (Core antigen): 6.29
Activity (Hepatitis B virus [8]): Active
Activity (Hepatitis B virus [9]): Active

COc1ccccc1/C(Br)=C(/NC(=O)c1ccc([N+](=O)[O-])cc1)C(=O)N1CCCCC1
pEC50 (Hepatitis B virus [10]): 6.70
